Data on 9 compounds can be found in patent publication US20120232107A1, “NON-PEPTIDE ANTAGONISTS OF GASTRIN RELEASING PEPTIDE” (The Government of the United States of America as …, priority 2003, published 2012).

Entries after “also recorded” stand apart in the source; their conditions may differ. Where two headings read alike, the source gives them in different places.

The target of experiment [1] is T1, AM (Homo sapiens, UniProt P35318).
T1 construct: AM is a 52 amino acid peptide; purchased Peninsula (S. Carlos, Calif.); host or cells: synthetic peptide
T1 sequence (P35318 95-146): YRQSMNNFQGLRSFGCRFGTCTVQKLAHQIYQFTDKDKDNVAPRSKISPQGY
The experiment can be described thus: cAMP analysis for AM in Rat2 cells. Conditions: for variation of intracellular cAMP levels: in the presence of 100 nM AM, Rat2 cells; for Action on second messengers: peptide AM, cAMP induced by 100 nM AM in Rat2 cells; for Response to second messengers: peptide target AM. The class given is cell-based, rat. As to the method:
This cell line was obtained from the American Tissue Culture Collection (ATCC, Manassas, Va.) and maintained in RPMI-1640 supplemented with 10% fetal bovine serum (FBS, Invitrogen, Carlsbad, Calif.). Cells were seeded in 24-well plates at 2×10^4 cells/well and incubated at 37° C. in 5% CO2 until they reached 80% confluency. Before the assay, cells were incubated for 15 min in TIS medium (RPMI-1640 plus 10 μg/ml transferrin, 10 μg/ml insulin, and 50 nM sodium selenite) containing 1% BSA, 1 mg/ml bacitracin, and 100 μM isobutylmethylxanthine. Peptides and small molecules were applied in the same medium for 5 min at the indicated concentrations in a volume of 250 μl. The reaction was terminated by adding an equal volume of ice-cold ethanol. cAMP contents were measured using the Biotrac cAMP radioimmunoassay (Amersham Biosciences, Piscataway, N.J.), as described (Pio et al. (2001) J. Biol. Chem. 276, 12292-12300).
(In general: cAMP levels reflect the balance of adenylyl cyclase and phosphodiesterase activity.)

In experiment [2] the target is T1, AM. The experiment can be described thus: Surface plasmon resonance binding to immobilized AM. Conditions: for Binding to AM kd: kinetic dissociation constant; for kon: read-out: Binding to AM ka; for Binding to AM KA: thermodynamic association constant. The procedure:
Characterization of the binding between AM and the small molecules was performed immobilizing 3 μg of AM on a CM5 sensor chip by N-hydroxysuccinimide activation, followed by covalent amino coupling of the peptide to the surface, using BIAcore 3000 (Piscataway, N.J.). The remaining free surface was blocked with 1 mM ethanolamine and the matrix washed with 0.5 M NaCl solution and then re-equilibrated with binding buffer (1:200 DMSO in PBS). Eight different dilutions of each small molecule were prepared in binding buffer with concentrations ranging from 0 to 10 μM and injected from low to high concentration. Each injection was followed by a matrix regeneration step. Mass transfer control experiments were performed by injecting the same concentration of each small molecule at different flow rates (5, 15, and 75 μl/min). The data were then fitted to several models for a kinetic analysis and the binding constants calculated. The best fittings were obtained with a simple 1:1 Langmuir model.
A general note: Surface plasmon resonance follows binding to a sensor surface in real time, without labels.

Experiment [3] has as its system normotensive Lewis/ssncr rats. The experiment can be described thus: Measurement of blood pressure in vivo, normotensive Lewis/ssncr rats. Conditions: for Biological activity (blood pressure): AM antagonists, 20 nmols/Kg iv; for Biological activity: negative modulators of AM. On the set-up: species or system rat. As to the method:
(§1) AM is a potent and long-lasting vasodilator Therefore it was expected that AM antagonists would elevate blood pressure and AM superagonists would decrease it further. In consequence, suspected antagonists were analyzed in normotensive rats (10-week-old Lewis/ssncr males, SAIC, Frederick, Md.) and suspected superagonists in hypertensive animals (10-week-old SHR males, Taconic Farms, Germantown, N.Y.).
(§2) Animals were anaesthetized with 3% halothane, intubated, and maintained with 1% halothane in 70% nitrous oxide and 30% oxygen (VMS Anesthesia Machine, Matrx, Medical Inc., Orchard Park, N.Y.) at 82 strokes/min. Rectal temperature was monitored through the experiment. A PE50 catheter was placed on the right femoral artery and arterial blood pressure was recorded through a P23XL transducer (Grass Instruments, Quincy, Mass.). Peptides and small molecules were injected into the right femoral vein through another catheter. All procedures were performed under a protocol approved by the National Institutes of Health.

The target in experiment [4] is T2, GRP (Homo sapiens, UniProt P07492).
T2 construct: GRP is a 27 amino acid peptide; purchased Peninsula (S. Carlos, Calif.); host or cells: synthetic peptide
T2 sequence (P07492 24-50 limits assumed): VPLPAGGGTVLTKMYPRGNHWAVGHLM
The experiment can be described thus: Ca2+ analysis for GRP in H-1299 cells. Type of experiment: cell-based. Conditions: H1299 cells pre-exposed to compound (1 min). The procedure:
After washing two times with TIS, 2 ml of cell suspension were placed in a Delta PTI Scan 1 spectrofluorimeter (Photon Technology International, South Brunswick, N.J.) equipped with a stir bar and water bath (37° C.). Fluorescence was measured at dual excitation wavelengths of 340 nm and 380 nm using an emission wavelength of 510 nm.

The target in experiment [5] is T2, GRP. The experiment can be described thus: IP3 analysis for GRP in H-1299 cells. Conditions: for Action on second messengers: peptide GRP, IP3 or Ca2+ levels induced by GRP in H1299 cells. Type of experiment: cell-based. The procedure:
This cell line was obtained from ATCC and cultured as the other cell lines. The signal transduction pathway for GRP includes elevation of intracellular levels of IP3 and Ca^2+ and these were investigated as previously shown (Ryan et al. (1998) J. Biol. Chem., 273, 13613-13624). Briefly, to quantify IP3, contents cells were subcultured into 24-well plates (5×10^4 cells/well). After a 24 h incubation period at 37° C., the cells were incubated with 3 μCi/ml myo-[^3H]inositol in growth medium supplemented with 2% FBS for an additional 24 h. Incubation volumes were 500 μl of assay buffer/well containing 135 mM sodium chloride, 20 mM HEPES (pH 7.4), 2 mM calcium chloride, 1.2 mM magnesium sulfate, 1 mM EGTA, 20 mM lithium chloride, 11.1 mM glucose, and 0.05% BSA (v/v) with or without any of the molecules studied at 37° C. for 30 min. Experiments were terminated with 1 ml of ice-cold hydrochloric acid/methanol (0.1%, v/v). [^3H]IP3 was eluted off Dowex AG-1-X8 anion exchange columns with 2 ml of 1 mM ammonium formate and 100 mM formic acid. Each of the eluates was collected and mixed with 10 ml of scintillation mixture (BioSafe, Research Products International Corp, Mount Prospect, Ill.), and the radioactivity was measured in a LS 3801 β counter (Beckman, Somerset, N.J.).

The next experiment relates to hypertensive SHR rats. As to the kind of experiment: Measurement of blood pressure in vivo, hypertensive SHR rats. Conditions: for decrease in blood pressure from basal levels: 20 nmols/Kg intravenous; for decrease in blood pressure from basal levels / Biological activity (blood pressure): hypertensive rats; for Biological activity (blood pressure): AM superagonists, 20 nmols/Kg iv. On the set-up: species or system rat. As to the method:
as §1, §2

Where [6] appears, read: unit inferred, read-out: calculated KD.

In general, Kd refers to the equilibrium constant for the complex coming apart.

`CCN1CCC(O)(C(C(=O)O)c2ccccc2)CC1` (centres unmarked) [compound 16311]: on AM [1], the “variation of intracellular cAMP levels” value is on record as “most active antagonists”, the “Action on second messengers” value is “Antagonists” and the “Response to second messengers” value is listed as “Neg. modul”. Besides, at AM [2], the “Binding to AM kd” value was 1.02e-05 s⁻¹, the kon was found to be 1550 M⁻¹ s⁻¹ and the “Binding to AM KA” value worked out at 1.52e+08 M⁻¹. Further, the Kd on AM [2] (setting [6]) was 0.00656 µM. In experiment [3] (20 nmols/Kg intravenous, normotensive rats), the “elevation in blood pressure, difference from basal levels” value was 127±47 mm Hg. Moreover, the “Biological activity (blood pressure)” value in experiment [3] (normotensive rats) was “Elevates blood”. Further, in experiment [3], the Biological activity result was “Vasodilator”.
For the compound `CCN(CC)CCC(O)(Cc1ccccc1)C(C(=O)O)c1ccccc1` (centres unmarked) [compound 50161], on AM [1], the “variation of intracellular cAMP levels” value is recorded as “most active antagonists” and the “Action on second messengers” value is on record as “Antagonists”.
As to `Oc1c[n+](CC[n+]2cc(O)on2)no1` [compound 54671], the “Ca2+ response elicited by 1 nM GRP” value on GRP [4] is listed as “dramatically reduces”. In addition, the “Binding to AM” value at AM [2] (immobilized AM) is recorded as “not to bind; also recorded: No binding”. The “Action on second messengers” value on GRP [5] is “Antagonists”. Moreover, the “Response to second messengers” value at GRP [5] (peptide target GRP) is reported as “Neg. modul”.
In the case of `CS(=O)(=O)OC1CN2CCC1CC2` (centres unmarked) [compound 79422], on AM [1], the “variation of intracellular cAMP levels” value is recorded as “antagonist” and the “Action on second messengers” value was “Antagonists”.
`OC(COc1ccccc1)CN1CCCCC1` (centres unmarked) [compound 89435]: on AM [1], the “variation of intracellular cAMP levels” value is recorded as “most active antagonists”, the “Action on second messengers” value was “Antagonists” and the “Response to second messengers” value is recorded as “Neg. modul”. Further, at AM [2], the “Binding to AM kd” value was determined as 0.000871 s⁻¹, the kon turned out to be 1020 M⁻¹ s⁻¹ and the “Binding to AM KA” value turned out to be 1.18e+06 M⁻¹. Moreover, on AM [2] (thermodynamic dissociation constant, read-out: Binding to AM KD), the dissociation constant (Kd) is 0.851 µM. Moreover, the “Biological activity (blood pressure)” value in experiment [3] (normotensive rats) is “Elevates blood”. The Biological activity result in experiment [3] was “Vasodilator”.
Consider `OCCCN=C1CCCCC1` [compound 128911], for which, at AM [1], the “Action on second messengers” value is reported as “Superagonists” and the “Response to second messengers” value is “Posit. modul”. For the same compound, in the experiment on hypertensive SHR rats, the “decrease in blood pressure from basal levels” value was 62±21 mm Hg and the “Biological activity (blood pressure)” value is recorded as “Reduces blood”. Besides, the Biological activity result in the experiment with hypertensive SHR rats (positive modulator of AM) was “Vasopressor”. Also, on AM [2], the “Binding to AM kd” value was found to be 0.000892 s⁻¹, the kon was determined as 304 M⁻¹ s⁻¹ and the “Binding to AM KA” value was found to be 341000 M⁻¹. The Kd at AM [2] (setting [6]) was 2.93 µM.
Consider `Nc1nc(=O)c2[nH]cnc2n1O` [compound 145425], for which the “Action on second messengers” value on AM [1] is “Superagonists”. In the experiment with hypertensive SHR rats, the “decrease in blood pressure from basal levels” value stood at 55±24 mm Hg and the “Biological activity (blood pressure)” value is “Reduces blood”.
As to `O=NN(Cc1ccc(Cl)cc1)C(C(=O)O)c1ccccc1` (centres unmarked) [compound 372874], the “Action on second messengers” value on GRP [5] was “Superagonist”.
On to `Nn1c(CCCCCCCCc2nnc(COc3ccc4ccccc4c3O)n2N)nnc1COc1ccc2ccccc2c1O` [compound 697162], for which the “Action on second messengers” value on AM [1] was “Superagonists”.
